According to publication PMC8143347, “Metabolism and Interspecies Variation of IMMH-010, a Programmed Cell Death Ligand 1 Inhibitor Prodrug” (Pharmaceutics, 2021):

Columns and labels:
recombinant human AADAC = target: T1, recombinant human AADAC (Homo sapiens, UniProt P22760); assay: IMMH-010 hydrolysis by recombinant human AADAC; assay type: in vitro ADME; conditions: 10 μM, AADAC 0.1 mg/mL, 15 min, 37 °C
T1 construct: purchased CUSABIO Biotech Co., Ltd. (Wuhan, China)
T1 sequence (P22760 1-399): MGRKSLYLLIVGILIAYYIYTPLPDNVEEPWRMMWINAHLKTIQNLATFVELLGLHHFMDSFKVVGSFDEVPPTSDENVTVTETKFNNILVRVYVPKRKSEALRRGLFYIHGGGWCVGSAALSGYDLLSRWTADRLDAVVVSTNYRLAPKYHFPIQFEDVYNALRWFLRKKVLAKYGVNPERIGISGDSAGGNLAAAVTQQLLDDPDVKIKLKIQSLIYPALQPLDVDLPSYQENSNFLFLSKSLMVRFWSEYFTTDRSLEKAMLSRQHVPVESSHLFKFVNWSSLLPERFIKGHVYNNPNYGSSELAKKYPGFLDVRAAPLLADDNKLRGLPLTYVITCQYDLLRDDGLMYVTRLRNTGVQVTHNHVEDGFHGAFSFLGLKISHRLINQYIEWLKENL
Protocol: (§1) To verify the role of CES1, CES2, and AADAC in human metabolism of […]-010 (10 μM) was incubated individually with recombinant human CES1, CES2, and AADAC (0.1 mg protein/mL) at 37 °C for 15 min. Lidocaine (500 μM), CPT-11 (2 μM), and phenacetin (1 mM), which are substrates of CES1, CES2, and AADAC, were used as positive controls.

CES1 = target: T2, CES1 (Homo sapiens, UniProt P23141); assay: IMMH-010 hydrolysis by recombinant human CES1; assay type: in vitro ADME; parameters: purchased Cypex Ltd. (Dundee, United Kingdom); conditions: 10 μM, CES1 0.1 mg/mL, 15 min, 37 °C
T2 sequence (P23141 18-567): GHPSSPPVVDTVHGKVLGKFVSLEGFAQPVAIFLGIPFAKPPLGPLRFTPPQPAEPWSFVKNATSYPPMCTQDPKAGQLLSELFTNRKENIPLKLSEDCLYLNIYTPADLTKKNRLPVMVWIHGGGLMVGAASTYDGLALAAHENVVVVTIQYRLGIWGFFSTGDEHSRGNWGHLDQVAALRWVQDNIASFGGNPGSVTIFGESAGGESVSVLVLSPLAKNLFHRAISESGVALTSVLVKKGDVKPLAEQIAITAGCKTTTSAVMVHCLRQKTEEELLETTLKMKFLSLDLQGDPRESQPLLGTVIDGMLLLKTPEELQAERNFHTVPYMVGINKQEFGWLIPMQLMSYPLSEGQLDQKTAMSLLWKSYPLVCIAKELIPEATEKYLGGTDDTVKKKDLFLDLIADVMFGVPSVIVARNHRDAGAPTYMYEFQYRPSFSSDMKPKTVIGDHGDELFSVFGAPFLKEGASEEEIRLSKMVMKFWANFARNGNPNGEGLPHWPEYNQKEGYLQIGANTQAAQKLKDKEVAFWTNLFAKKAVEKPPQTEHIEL
Protocol: as §1

CES2 = target: T3, CES2 (Homo sapiens, UniProt O00748); assay: IMMH-010 hydrolysis by recombinant human CES2; assay type: in vitro ADME; parameters: purchased Cypex Ltd. (Dundee, United Kingdom); conditions: 10 μM, CES2 0.1 mg/mL, 15 min, 37 °C
T3 sequence (O00748 27-559): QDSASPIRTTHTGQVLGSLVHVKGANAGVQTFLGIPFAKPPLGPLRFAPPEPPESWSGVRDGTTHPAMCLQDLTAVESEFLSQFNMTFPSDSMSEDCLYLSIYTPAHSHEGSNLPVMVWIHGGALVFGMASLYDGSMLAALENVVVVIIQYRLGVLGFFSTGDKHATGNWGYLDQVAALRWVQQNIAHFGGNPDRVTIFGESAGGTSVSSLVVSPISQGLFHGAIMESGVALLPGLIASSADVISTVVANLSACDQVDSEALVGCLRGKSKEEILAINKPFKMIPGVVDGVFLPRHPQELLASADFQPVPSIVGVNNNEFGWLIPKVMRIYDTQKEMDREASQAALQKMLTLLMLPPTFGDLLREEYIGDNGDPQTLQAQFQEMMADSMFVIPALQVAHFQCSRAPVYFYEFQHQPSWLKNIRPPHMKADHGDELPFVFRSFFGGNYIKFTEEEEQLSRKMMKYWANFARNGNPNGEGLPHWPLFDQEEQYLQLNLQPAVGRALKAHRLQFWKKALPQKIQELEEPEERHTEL
Protocol: as §1

[1] = Plasma and tumor PK in MC38 colon cancer xenograft mice; assay type: in vivo, mouse; conditions: after last oral dose of IMMH-010 maleate 5 mg/kg
Protocol: After the final dose, tumor and blood samples treated with IMMH-010 maleate (5 mg/kg) were collected over 72 h. Blood was exposed in an EP tube containing 500 mM NaF and 0.5% heparin sodium. Plasma samples were obtained by centrifugation, and tumor tissues were homogenized with 3 volumes (w/v) of saline on ice. The concentration of IMMH-010 and YPD-29B in plasma and tumor samples was quantitated by an LC-MS/MS method.
LC-MS/MS was performed using a triple quadrupole mass spectrometer (API 4000, AB Sciex, Framingham, MA, USA) with an ultra-performance liquid chromatography system (LC-30A, Shimadzu, Kyoto, Japan). Analyst 1.6.2 software (AB Sciex) was used for data acquisition and analysis. Mobile phase A was 1 mM ammonium acetate and mobile phase B was methanol. The mobile phase was delivered with the following gradient elution profile: 0–2.8 min, 70% B; 2.9 min, 85% B; 3 min, 90% B; 3.1–6.8 min, 100% B; 6.9–12 min, 70% B. The flow rate was 0.3 mL/min, and the column oven was maintained at 35 °C. The specific transitions monitored were 641.3 → 494.2 for IMMH-010, 597 → 155 for YPD-29B, 512 → 247 for M3, and 524 → 246 for M4.
All statistics were calculated using GraphPad Prism 8.0 software (San Diego, CA, USA) designed for one-way ANOVA. Pharmacokinetic parameters were calculated with a non-compartmental analysis using WinNonlin Version 6.3 (Pharsight, Mountain View, CA, USA). ADMET predictor V10.0 (Simulations Plus, Inc., Lancaster, CA, USA) and Microsoft Excel (Microsoft, Redmond, WA, USA) were used to process the data (i.e., half-life (t1/2) and hepatic clearance (CLhep) determination). Data were expressed as means ± standard deviations (SD). Results were considered statistically significant if the p-value <0.05, <0.01 and <0.001.

CC(C)OC(=O)[C@H](CO)NCc1cc(Cl)c(OCc2cccc(-c3ccccc3)c2Br)cc1OCc1cccnc1 [IMMH-010]
remaining amount of IMMH-010 (recombinant human AADAC): 98.7% | remaining amount of IMMH-010 (CES1): 12.9% | remaining amount of IMMH-010 (CES2): 94.2% | concentration of IMMH-010 in plasma and tumor tissues [1]: < 1 ng/mL
